In the supplement of paper PMC10307832:

Columns and labels:
Assay in all cases: relative viability (nuclei count vs DMSO), 5 days (fraction); higher = more cells survive
[1] = compound: Cc1ccc(-n2nc(C(C)(C)C)cc2NC(=O)Nc2ccc(OCCN3CCOCC3)c3ccccc23)cc1 [Doramapimod] + CC(=O)Nc1cccc(-n2c(=O)n(C3CC3)c(=O)c3c(Nc4ccc(I)cc4F)n(C)c(=O)c(C)c32)c1 [Trametinib] (partner 0.02 µM)
How it was run: (§1)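 Relative viability divides the nuclei count in treated wells by that in vehicle wells. Lung cancer cell lines were seeded in 1536-well plates, dosed by pin tool the next day, and fixed and stained after 5 days in one step with final 0.05% Triton X-100, 1% formaldehyde and 1 ug/ml Hoechst. Dosing was a single drug or a fixed anchor-drug dose plus five library-drug doses (not always all listed) in √10 steps, and values are medians of duplicate plates imaged at 4×.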

[2] = compound: Cc1ccc(-n2nc(C(C)(C)C)cc2NC(=O)Nc2ccc(OCCN3CCOCC3)c3ccccc23)cc1 [Doramapimod] + O=C(c1cc(Cc2n[nH]c(=O)c3ccccc23)ccc1F)N1CCN(C(=O)C2CC2)CC1 [Olaparib] (partner 8 µM)
How it was run: as §1

[3] = compound: C1=CC=C2C(=C1)C=CC(=C2SSC3=C(C=CC4=CC=CC=C43)O)O [IPA-3] + Cc1nc(NC(=O)N2CCC[C@H]2C(N)=O)sc1-c1ccnc(C(C)(C)C(F)(F)F)c1 [Alpelisib] (partner 2 µM)
How it was run: as §1

[4] = compound: Cn1c(Nc2ccc(C(F)(F)F)cc2)nc2cc(Oc3ccnc(-c4ncc(C(F)(F)F)[nH]4)c3)ccc21 [RAF265] + CS(=O)(=O)CCNCc1ccc(-c2ccc3ncnc(Nc4ccc(OCc5cccc(F)c5)c(Cl)c4)c3c2)o1 [Lapatinib] (partner 2 µM)
How it was run: as §1

Cell Line	relative viability ([1]; first compound 0.02 µM)	relative viability ([1]; first compound 0.06325 µM)	relative viability ([1]; first compound 0.2 µM)	relative viability ([1]; first compound 0.6325 µM)	relative viability ([1]; first compound 2 µM)	relative viability ([2]; first compound 0.02 µM)	relative viability ([2]; first compound 0.06325 µM)	relative viability ([2]; first compound 0.2 µM)	relative viability ([2]; first compound 0.6325 µM)	relative viability ([2]; first compound 2 µM)	relative viability ([3]; first compound 0.2 µM)	relative viability ([3]; first compound 0.6325 µM)	relative viability ([3]; first compound 2 µM)	relative viability ([3]; first compound 6.325 µM)	relative viability ([3]; first compound 20 µM)	relative viability ([4]; first compound 0.01 µM)	relative viability ([4]; first compound 0.03162 µM)	relative viability ([4]; first compound 0.1 µM)	relative viability ([4]; first compound 0.3162 µM)	relative viability ([4]; first compound 1 µM)
201T	0.736	0.715	0.729	0.772	0.71	0.869	1.01	0.848	0.96	0.839	1.02	1.01	0.997	0.936	1.04	1.02	1.04	1.04	1.06	1.04
A549	–	–	–	–	–	0.376	0.3	0.299	0.3	0.269	0.926	0.705	0.838	0.753	0.745	0.906	0.853	0.987	0.465	0.463
A-427	0.763	0.714	0.79	–	0.619	0.86	0.85	0.838	–	0.738	1.11	0.993	1.11	1.08	1.14	1.06	0.949	1.06	1.11	0.713
ABC-1	–	–	–	–	–	0.851	0.68	0.698	0.983	0.935	1.23	1.11	–	0.881	1.07	1.08	1.01	1.2	1.25	0.886
BEN	0.908	0.924	1.11	0.737	0.924	1.05	1.1	1.01	0.901	0.967	1.28	0.992	1.09	0.954	1.26	0.726	0.76	0.945	0.831	0.557
CAL-12T	0.333	0.325	0.342	0.402	0.297	0.724	0.711	0.68	0.758	0.609	1.38	1.14	1.18	0.999	1.27	0.68	0.653	0.825	0.598	0.449
COR-L23	0.675	0.651	0.588	0.607	0.616	0.368	0.351	0.368	0.315	0.379	0.872	0.769	0.861	0.589	0.587	1.02	0.982	1.02	0.748	0.62
COR-L 105	0.391	0.419	0.478	0.462	0.318	0.59	0.727	0.707	0.824	0.602	0.998	0.964	1.17	0.859	1.11	0.341	0.376	0.383	0.342	0.322
Calu-6	–	–	–	–	–	0.589	0.6	0.622	0.554	0.557	1.08	1.01	1.01	0.928	0.924	1.01	0.875	0.877	0.485	0.388
ChaGo-K-1	0.753	0.811	0.851	0.844	0.725	0.472	0.423	0.438	0.379	0.398	–	–	–	–	–	–	–	–	–	–
EBC-1	–	–	–	–	–	0.664	0.69	0.689	0.675	0.558	0.992	0.73	0.821	0.811	0.475	0.209	0.218	0.232	0.284	0.247
EKVX	0.32	0.268	0.328	0.352	0.313	0.955	0.775	0.888	0.844	0.742	0.923	0.859	0.941	0.941	1.27	0.189	0.199	0.228	0.153	0.187
EMC-BAC-2	0.884	0.816	0.894	0.873	0.766	0.494	0.441	0.469	0.473	0.43	0.813	0.744	0.785	0.694	0.822	0.908	0.856	0.857	0.993	0.449
EPLC-272H	0.25	0.294	0.302	–	0.291	0.732	0.766	0.726	1.03	0.717	0.962	0.947	0.902	0.968	1.23	0.976	0.707	0.655	0.855	0.343
H3255	0.581	0.522	0.626	–	0.522	0.591	0.567	0.573	0.567	0.539	0.798	0.774	0.48	0.657	0.863	0.254	0.248	0.26	–	0.17
HARA	0.634	0.414	0.749	0.602	0.5	0.741	0.709	0.839	0.835	0.76	0.897	0.784	0.919	0.804	1.05	0.889	0.752	0.633	0.493	0.421
HCC-15	0.341	0.306	0.331	0.293	0.292	0.675	0.692	0.675	0.654	0.623	1.01	0.831	0.73	0.876	0.928	0.832	0.893	0.847	0.657	0.638
HCC-44	1.08	1.2	1.11	1.18	1.06	0.995	0.976	0.993	0.979	0.977	0.788	0.715	0.843	0.683	0.775	0.994	0.895	0.993	1.04	0.968
HCC-78	0.802	0.724	0.767	0.763	0.819	0.779	0.715	0.796	0.856	0.729	0.327	0.406	0.244	0.347	0.51	0.902	0.702	1.24	0.938	0.209

Cell Line	relative viability ([1]; first compound 0.02 µM)	relative viability ([1]; first compound 0.06325 µM)	relative viability ([1]; first compound 0.2 µM)	relative viability ([1]; first compound 0.6325 µM)	relative viability ([1]; first compound 2 µM)	relative viability ([2]; first compound 0.02 µM)	relative viability ([2]; first compound 0.06325 µM)	relative viability ([2]; first compound 0.2 µM)	relative viability ([2]; first compound 0.6325 µM)	relative viability ([2]; first compound 2 µM)	relative viability ([3]; first compound 0.2 µM)	relative viability ([3]; first compound 0.6325 µM)	relative viability ([3]; first compound 2 µM)	relative viability ([3]; first compound 6.325 µM)	relative viability ([3]; first compound 20 µM)	relative viability ([4]; first compound 0.01 µM)	relative viability ([4]; first compound 0.03162 µM)	relative viability ([4]; first compound 0.1 µM)	relative viability ([4]; first compound 0.3162 µM)	relative viability ([4]; first compound 1 µM)
HCC-366	0.309	0.248	0.259	0.263	0.212	0.331	0.333	0.318	0.368	0.303	0.499	0.425	0.432	0.477	0.333	1.03	1.08	1.23	1.02	1.05
HCC-827	0.571	0.408	0.521	0.594	0.405	0.766	0.596	0.6	0.679	0.396	0.972	0.961	0.971	0.978	1.01	0.186	0.197	0.196	–	0.147
HOP-62	0.411	0.349	0.464	0.423	0.468	0.315	0.369	0.424	0.495	0.467	1.08	0.926	0.952	0.945	0.93	1.12	–	0.934	1.05	0.792
IA-LM	–	–	–	–	–	0.797	0.81	0.724	0.708	0.875	0.884	0.735	0.731	0.703	0.738	0.652	0.578	0.759	0.653	0.52
LC-2-ad	0.992	0.92	0.906	0.981	0.855	0.692	0.801	0.759	0.732	0.766	0.927	0.808	0.897	0.82	0.941	0.906	1.03	0.813	0.654	0.208
LCLC-97TM1	0.169	0.225	0.249	0.265	0.204	0.454	0.477	0.539	0.426	0.254	0.281	0.299	0.241	0.232	0.246	1.12	1.05	0.443	0.856	0.219
LCLC-103H	0.656	0.675	0.683	0.68	0.679	0.741	0.786	0.745	0.758	0.764	0.926	0.806	0.81	0.943	1.02	–	–	–	–	–
LK-2	0.587	0.727	0.715	0.31	0.647	0.656	0.778	0.656	0.493	0.397	1.13	1.02	1.19	1.19	1.22	0.879	0.875	1.06	1.03	0.632
LOU-NH91	0.802	0.771	0.761	0.767	0.678	0.987	0.929	0.902	1	0.737	0.717	0.702	0.723	0.674	0.914	0.763	0.719	0.664	0.808	0.572
NCI-H441	0.511	0.524	0.457	0.568	0.366	0.45	0.501	0.45	0.609	0.356	0.942	–	0.628	0.668	0.782	–	–	–	–	–
NCI-H522	0.717	0.703	0.799	0.727	0.633	0.582	0.669	0.696	0.604	0.608	–	–	–	–	–	–	–	–	–	–
NCI-H1299	–	–	–	–	–	0.97	0.963	0.834	0.864	0.803	1.07	1.07	1.02	1.07	1.06	0.926	0.918	0.955	0.69	0.742
NCI-H1563	–	–	–	–	–	–	–	–	–	–	0.987	0.982	1.06	0.949	1.07	1.01	0.885	0.992	0.815	0.737
NCI-H1648	0.435	0.46	0.508	0.582	0.402	0.99	0.664	0.8	0.981	0.552	–	–	–	–	–	–	–	–	–	–
NCI-H1650	0.612	0.665	0.734	0.763	0.496	0.82	0.831	0.682	0.874	0.884	–	–	–	–	–	0.844	0.749	0.874	0.325	0.637
NCI-H1703	–	–	–	–	–	0.533	0.513	0.384	0.38	0.31	0.362	0.289	0.304	0.301	0.397	1.07	0.825	1.03	0.613	0.386
NCI-H2342	0.838	0.844	0.754	0.817	0.847	0.496	0.475	0.472	0.473	0.431	–	–	–	–	–	–	–	–	–	–
SW 900	0.761	0.875	0.974	0.749	0.769	0.842	0.728	0.895	0.939	0.846	–	–	–	–	–	–	–	–	–	–
